The values that follow come from PMC7400577 (Scientific Reports, 2020).

Numbering of substitutions follows the chain as printed. “And” between values parts separate entries of the source, which are not always exact repeats. Identical values can stand only once. Like-named read-outs stand apart in the source and are kept apart here.

In assay [1] the target is T1, hBGT1 (Homo sapiens, UniProt P48065).
T1 construct: expressed in transfected cells
T1 sequence (P48065 1-614): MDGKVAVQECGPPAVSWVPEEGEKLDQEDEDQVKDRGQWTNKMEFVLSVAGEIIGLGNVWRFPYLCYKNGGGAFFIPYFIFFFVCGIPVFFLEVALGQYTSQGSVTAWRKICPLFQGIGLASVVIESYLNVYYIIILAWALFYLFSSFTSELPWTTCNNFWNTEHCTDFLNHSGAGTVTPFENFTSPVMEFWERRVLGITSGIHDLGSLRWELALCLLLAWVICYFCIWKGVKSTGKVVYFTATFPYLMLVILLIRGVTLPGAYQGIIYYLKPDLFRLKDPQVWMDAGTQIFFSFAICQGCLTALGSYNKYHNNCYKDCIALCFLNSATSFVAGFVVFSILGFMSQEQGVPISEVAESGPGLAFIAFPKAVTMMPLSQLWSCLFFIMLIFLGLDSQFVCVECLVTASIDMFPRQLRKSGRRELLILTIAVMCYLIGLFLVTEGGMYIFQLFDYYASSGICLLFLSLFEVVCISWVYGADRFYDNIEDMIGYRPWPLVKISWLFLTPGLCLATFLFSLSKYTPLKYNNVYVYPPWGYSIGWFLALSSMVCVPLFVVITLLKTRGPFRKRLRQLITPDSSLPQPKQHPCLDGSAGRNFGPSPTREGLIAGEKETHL
In words: FLIPR Membrane Potential (FMP) assay at hBGT1 stably expressed in CHO Flp-In cells. As to conditions: for substrate character at hBGT1 in FMP assay: concentration-dependent increase in fluorescence signal; for Mean Rmax as % of GABA Rmax ± S.E.M. / EC50: hBGT1 stably expressed in CHO Flp-In cells; for Mean Rmax as % of GABA Rmax ± S.E.M.: FMP assay; for EC50: three independent experiments. It is filed as cell-based. The method, then:
The fluorescence-based FMP assay was performed as previously described, for the functional characterization of the electrogenic transport of substrates via hBGT1. Briefly, CHO Flp-In cells stably expressing hBGT1 or hGAT1 were plated (~ 50,000 cells/well) into black PDL-coated 96-well plates with clear bottom (VWR, Radnor, PA, USA). The next day, the growth medium was removed, and cells were washed once with HBSS assay buffer and FMP Blue Dye (Molecular Devices, Crawley, UK), added, and incubated. Ligands were added via the NOVOStar plate reader (BMG Labtech GmbH, Offenburg, Germany), preheated to 37 °C, approximately 10 min before reading of the cell plate. The fluorescence signals were measured for 33.8 s upon ligand addition using an emission and excitation wavelength of […], respectively. Electrogenic transport of substrates via hBGT1 will lead to an influx of the negatively charged FMP Blue dye that will bind to intracellular proteins and lipids resulting in an increase in the fluorescence signal.
Data analysis and statistical evaluation were performed in GraphPad Prism 7.02 (GraphPad Software, San Diego, CA, USA). Concentration-uptake inhibition curves, generated from the radioligand-based uptake assays, were fitted by non-linear regression, using the equation for sigmoidal concentration–response with variable slope: Y = Bottom + (Top–Bottom)/(1 + 10^((logIC50 − X) × HillSlope)), where Y is the response, X is the logarithm of the concentration, Top and Bottom are the plateaus in same units as Y, logIC50 is the concentration giving a response halfway between Bottom and Top, and the HillSlope is the steepness of the curve. For the substrate concentration–response curves generated from the FMP assay, the same equation was used but with logEC50 instead for logIC50. Unless otherwise stated, data are presented as means ± S.E.M. of at least three independent pooled experiments performed in triplicates.

Assay [2] has as its target T2, hBGT1 wt (Homo sapiens, UniProt P48065).
T2 construct: expressed in transfected cells; host or cells: tsA201 cells, transient (PolyFect), pcDNA5/FRT vector
T2 sequence (P48065 1-614): T1 sequence (P48065 1-614)
Nature of the assay: [3H]GABA uptake inhibition at wt hBGT1 transiently expressed in tsA201 cells. Type of assay: cell-based. As to conditions: 30 nM [3H]GABA, tsA201 cells transiently expressing wt hBGT1.

Assay [3] addresses T3, hBGT1 E52Y (Homo sapiens, UniProt P48065, E52Y).
T3 sequence (P48065 1-614 E52Y): T1 sequence (P48065 1-614) with E52Y
In words: cell-based. As to conditions: 30 nM [3H]GABA, tsA201 cells, transient expression.

[4] abbreviates: read-out: pIC50 ± S.E.M. BGT1 wt (converted).

As usually defined, the EC50 is the concentration giving half of the maximal effect. Read a low EC50 as an effect from little substance. For `C[C@@H]1N=C(N)NC[C@@H]1C(=O)O` (single isomer, unassigned) [l-15a], in assay [1], the “substrate character at hBGT1 in FMP assay” value (“substrate character at hBGT1” below) is “substrates for hBGT1”, the “Mean Rmax as % of GABA Rmax ± S.E.M.” value is given as 36 ± 2.9 % of GABA Rmax and the EC50 came to 40 µM. Also, in assay [2] (setting [4]), the IC50 was 20.9 µM. The same compound returned an IC50 in assay [3] (IC50 BGT1 E52Y) greater than 1000 µM.
For the compound `NC1=NCC(C(=O)O)CN1` (centres unmarked) [ATPCA, 2-amino-1,4,5,6-tetrahydropyrimidine-5-carboxylic acid, reference compound], the values for the IC50 in assay [2] (read-out: IC50 BGT1 wt), in assay [2] (setting [4]) and in assay [3] (IC50 BGT1 E52Y) were 11 µM, 10.5 µM and 5.8 µM, respectively.
As to `NC1=NCC(C(=O)O)CC1` (centres unmarked) [compound 2, 6-amino-2,3,4,5-tetrahydropyridine-3-carboxylic acid, reference compound], the “substrate character at hBGT1” value in assay [1] is listed as “substrates for hBGT1”. In addition, the “Mean Rmax as % of GABA Rmax ± S.E.M.” value in assay [1] was 103 ± 3.9 % of GABA Rmax and 76 ± 2.7 % of GABA Rmax. The IC50 in assay [2] (read-out: IC50 BGT1 wt) is 52 µM; in assay [2] (setting [4]), 51.3 µM; in assay [3] (IC50 BGT1 E52Y) it was 44 µM; in assay [3] (pIC50 ± S.E.M. BGT1 E52Y), 37.2 µM.
As for `CCN1CC(C(=O)O)CN=C1N.Cl` (centres unmarked) [compound 3], in assay [1], the “substrate character at hBGT1” value is given as “substrates for hBGT1”. The figures for the IC50 in assay [2] (read-out: IC50 BGT1 wt), in assay [2] (setting [4]) and in assay [3] (IC50 BGT1 E52Y) were 406 µM, 398 µM and 152 µM, respectively.
On to `Cl.NC1=NCC(C(=O)O)CN1Cc1ccccc1` (centres unmarked) [compound 4], for which the results for the IC50 in assay [2] (read-out: IC50 BGT1 wt), in assay [2] (setting [4]) and in assay [3] (IC50 BGT1 E52Y) were 354 µM, 324 µM and 54 µM, respectively.
As to `NC1=NC=C(C(=O)O)CN1.O=C(O)C(F)(F)F` [compound 11], in assay [1], the “substrate character at hBGT1” value is “substrates for hBGT1”, the “Mean Rmax as % of GABA Rmax ± S.E.M.” value is 95 ± 4.0 % of GABA Rmax and it took 75 µM to reach a half-maximal effect (EC50). The IC50 in assay [2] (read-out: IC50 BGT1 wt) stood at 220 µM. In addition, in assay [3] (IC50 BGT1 E52Y), the IC50 is greater than 1000 µM.
